Reference: patent US20130030012A1, “COMPOUNDS” (Glaxo Group Limited, priority 2011, published 2013)
Like-named read-outs stand apart in the source and are kept apart here.

Key:
[1] = target: T1, recombinant human Lp-PLA2 (Homo sapiens, UniProt Q13093); assay: Recombinant human Lp-PLA2 assay (rhLp-PLA2, PED6 assay); type: biochemical; settings: upper limit for pIC50 in this assay is 9.3
T1 sequence (Q13093 22-441): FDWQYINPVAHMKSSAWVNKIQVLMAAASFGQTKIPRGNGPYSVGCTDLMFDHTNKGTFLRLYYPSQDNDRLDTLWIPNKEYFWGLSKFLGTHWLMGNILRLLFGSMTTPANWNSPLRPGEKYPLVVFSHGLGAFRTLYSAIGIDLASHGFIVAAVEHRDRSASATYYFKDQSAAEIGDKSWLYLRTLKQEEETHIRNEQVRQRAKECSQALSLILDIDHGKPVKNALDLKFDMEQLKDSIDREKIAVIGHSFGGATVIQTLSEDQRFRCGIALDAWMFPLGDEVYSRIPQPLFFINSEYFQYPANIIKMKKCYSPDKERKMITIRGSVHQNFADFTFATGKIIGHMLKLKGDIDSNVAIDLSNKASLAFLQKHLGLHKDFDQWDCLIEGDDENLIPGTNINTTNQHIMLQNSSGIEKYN
Excerpt: (1) Recombinant Human Lp-PLA2 Assay (rhLp-PLA2) (Also Referred to as “PED6” Assay)
N-((6-(2,4-dinitrophenyl)amino)-hexanoyl)-2-(4,4-difluoro-5,7-dimethyl-4-bora-3a,4a-diaza-s-indacene-3-pentanoyl)-1-hexadecanoyl-sn-glycero-3-phosphoethanolamine, triethylammonium salt (PED6) is a commercially available fluorescently-labeled phospholipid, which is commercially available from Invitrogene and Molecular Probes. There is a quenching […] and a Bodipy fluorescein (FL) group in the sn2 position. Upon cleavage with Lp-PLA2, the Bodipy FL group is liberated and then may result in an increase in fluorescence. Inhibitors of Lp-PLA2 therefore prevent this cleavage and no fluorescent increase is observed.
The PED6 assay was run as an unquenched 10 μL assay. The source plate containing the compounds to be tested was prepared by making 1:3 (by volume) serial dilution of the compounds within DMSO on 384-well microplate. Then, 0.01 μL of the compounds on compound source plate were transferred into 384 well Greiner 784076 (black) plates using ECHO liquid dispenser. 5 μL of recombinant human Lp-PLA2 enzyme (4 nM (or 110 pM) rhLp-PLA2 in assay buffer of 50 mM HEPES, pH 7.4, 150 mM NaCl, 1 mM CHAPS) was added to each well of the plate. Plates were centrifuged for 10 sec at 500 rpm. After 30 minutes preincubation, 5 μL of substrate ([…] (or 5 μM) PED6 [from 5 mM DMSO stock] in assay buffer of 50 mM HEPES, pH 7.4, 150 mM NaCl, 1 mM CHAPS) was added to 384 well Greiner 784076 (black) plates. Plates were centrifuged for 10 sec at 500 rpm. The plate was covered to protect it from light and incubated for 20 min at room temperature. The plates were read for fluorescence intensity at ex: 480/em: 540 using ViewLux microplate imager for Envision spectrofluoroimeters pIC50 data, curve and QC analysis was conducted by using XL fit module in Excel.
The compounds described below were tested generally according to the PED6 assay described above.

[2] = target: T2, Lp-PLA2 in human plasma (Homo sapiens, UniProt Q13093); assay: Lp-PLA2 human plasma assay (Thio-PAF assay); type: biochemical; settings: pooled human plasma; read-out: pIC50 values in the thio-PAF assay (converted)
T2 construct: from tissue; host or cells: pooled human plasma
T2 sequence (Q13093 22-441): T1 sequence (Q13093 22-441)
Excerpt: The human plasma assay utilizes a thioester analog of PAF (phosphatidylcholine), where hydrolysis yields to the formation of a phospholipid containing a free thiol group. The amount of thiol is quantitated continuously by reacting with CPM (7-diethylamino-3-(4′-maleimidylphenyl)-4-methylcoumarin), a maleimide which increases in fluoresence after Michael addition of thiols. This assay may detect the activity of Lp-PLA2 in human plasma, as determined by specific inhibition by Lp-PLA2 inhibitors.
The thio-PAF assay was run as a quenched 15 μL assay. Compounds source plate was prepared by making 1:3 (by volume) serial dilution of the compounds into pure DMSO on 384-well microplate. 0.01 μL of compounds on compound source plate were transferred to 384 well Greiner 784076 (black) low-volume plates by ECHO liquid dispenser. 8 μL pooled human plasma, which was previously aliquoted and frozen, was added. Plates were centrifuged for 10 sec at 500 rpm. After 30 minutes preincubation, 2 μL of substrate solution comprising 2.5 mM 2-thio-PAF [from ethanol stock], […] CPM [from a DMSO stock] and 3.2 mM NEM (N-ethylmaleimide) [made fresh daily in DMSO] in assay buffer of 50 mM HEPES, pH 7.4, 150 mM NaCl, 1 mM CHAPS was added to 384 well Greiner 784076 (black) low-volume plates by BRAVO liquid handling station. After 2 mins, reaction was quenched with 5 μL of 5% aqueous trifluoroacetic acid (TFA). Plates were covered to protect from light and incubated for 40 min at room temperature. Plates were read at ex: 380/em: 485 using—Envision microplate reader. pIC50 data, curve and QC analysis was conducted by using XLFit module in Excel.

[3] = Table 1, read-out: rhLp-PLA2 (PED6 assay) (pIC50) (converted)
[4] = read-out: pIC50 values in the PED6 assay (converted)

| IC50 [1, 3] [nM] | IC50 [1, 4] [nM] | IC50 [2] [nM] | Structure (SMILES) |
| --- | --- | --- | --- |
| – | ≤ 10 | ≤ 100 | CN1CCCn2c1cc(OCc1ccc(Oc3ccc(F)c(Cl)c3)c(F)c1)nc2=O [Example 15, 8-((4-(3-chloro-4-fluorophenoxy)-3-fluorobenzyl)oxy)-1-methyl-3,4-dihydro-1H-pyrimido[1,6-a]pyrimidin-6(2H)-one] |
| – | ≤ 1 | ≤ 100 | O=c1nc(OCc2ccc(Oc3cccc(C(F)(F)F)c3)c(F)c2)cc2n1CCCN2 [Example 101, 8-((3-fluoro-4-(3-(trifluoromethyl)phenoxy)benzyl)oxy)-3,4-dihydro-1H-pyrimido[1,6-a]pyrimidin-6(2H)-one] |
| – | ≤ 10 | ≤ 100 | CN1CCCn2c1cc(OCc1ccc(Oc3cccc(C(F)(F)F)c3)c(C#N)c1)nc2=O [Example 1, 5-(((1-methyl-6-oxo-2,3,4,6-tetrahydro-1H-pyrimido[1,6-a]pyrimidin-8-yl)oxy)methyl)-2-(3-(trifluoromethyl)phenoxy)benzonitrile] |
| – | ≤ 1 | ≤ 100 | N#Cc1cc(COc2cc3n(c(=O)n2)CCCN3)ccc1Oc1ccc(F)c(F)c1 [Example 94, 2-(3,4-difluorophenoxy)-5-(((6-oxo-2,3,4,6-tetrahydro-1H-pyrimido[1,6-a]pyrimidin-8-yl)oxy)methyl)benzonitrile] |
| – | ≤ 1 | ≤ 100 | O=c1nc(OCc2ccc(Oc3ccc(F)c(C(F)(F)F)c3)cc2)cc2n1CCCN2 [Example 100, 8-((4-(4-fluoro-3-(trifluoromethyl)phenoxy)benzyl)oxy)-3,4-dihydro-1H-pyrimido[1,6-a]pyrimidin-6(2H)-one] |
| – | ≤ 10 | ≤ 100 | N#Cc1cc(COc2cc3n(c(=O)n2)CCCN3)ccc1Oc1ccc(C(F)(F)F)cn1 [Example 92, 5-(((6-oxo-2,3,4,6-tetrahydro-1H-pyrimido[1,6-a]pyrimidin-8-yl)oxy)methyl)-2-((5-(trifluoromethyl)pyridin-2-yl)oxy)benzonitrile] |
| – | ≤ 1 | ≤ 100 | N#Cc1cc(COc2cc3n(c(=O)n2)CCCN3)ccc1Oc1ccc(Cl)c(C(F)(F)F)c1 [Example 107, 2-(4-chloro-3-(trifluoromethyl)phenoxy)-5-(((6-oxo-2,3,4,6-tetrahydro-1H-pyrimido[1,6-a]pyrimidin-8-yl)oxy)methyl)benzonitrile] |

Further lines, the compound ahead of its results:

| Structure (SMILES) | IC50 [1, 3] [nM] | IC50 [1, 4] [nM] | IC50 [2] [nM] |
| --- | --- | --- | --- |
| CN1CCCn2c1cc(OCc1cc(F)c(Oc3ccc(F)c(Cl)c3)c(F)c1)nc2=O [Example 83, 8-((4-(3-chloro-4-fluorophenoxy)-3,5-difluorobenzyl)oxy)-1-methyl-3,4-dihydro-1H-pyrimido[1,6-a]pyrimidin-6(2H)-one] | < 0.501 | ≤ 1 | ≤ 100 |
| CN1CCCn2c1cc(OCCc1ccc(Oc3ccc(C(F)(F)F)c(Cl)c3)cn1)nc2=O [Example 54, 8-(2-(5-(3-chloro-4-(trifluoromethyl)phenoxy)pyridin-2-yl)ethoxy)-1-methyl-3,4-dihydro-1H-pyrimido[1,6-a]pyrimidin-6(2H)-one] | – | ≤ 10 | ≤ 1000 |
| CN1CCCn2c1cc(OCc1ccc(Oc3ccc(C(F)(F)F)cn3)c(C#N)c1)nc2=O [Example 2, 5-(((1-methyl-6-oxo-2,3,4,6-tetrahydro-1H-pyrimido[1,6-a]pyrimidin-8-yl)oxy)methyl)-2-((5-(trifluoromethyl)pyridin-2-yl)oxy)benzonitrile] | 2.51 | ≤ 10 | ≤ 100 |
| CN1CCCn2c1cc(OCc1ccc(Oc3cccc(Cl)c3)c(F)c1)nc2=O [Example 16, 8-((4-(3-chlorophenoxy)-3-fluorobenzyl)oxy)-1-methyl-3,4-dihydro-1H-pyrimido[1,6-a]pyrimidin-6(2H)-one] | – | ≤ 10 | ≤ 100 |
| CN1CCCn2c1cc(OCc1cc(F)c(Oc3ccc(C(F)(F)F)cc3)c(F)c1)nc2=O [Example 89, 8-((3,5-difluoro-4-(4-(trifluoromethyl)phenoxy)benzyl)oxy)-1-methyl-3,4-dihydro-1H-pyrimido[1,6-a]pyrimidin-6(2H)-one] | – | ≤ 10 | ≤ 100 |
| CN1CCCn2c1cc(OCc1cc(F)c(Oc3ccc(F)c(C(F)(F)F)c3)c(F)c1)nc2=O [Example 88, 8-((3,5-difluoro-4-(4-fluoro-3-(trifluoromethyl)phenoxy)benzyl)oxy)-1-methyl-3,4-dihydro-1H-pyrimido[1,6-a]pyrimidin-6(2H)-one] | – | ≤ 1 | ≤ 100 |
| CN1CCCn2c1cc(OCc1ccc(Oc3ccc(Cl)nc3)c(F)c1)nc2=O [Example 95, 8-((4-((6-chloropyridin-3-yl)oxy)-3-fluorobenzyl)oxy)-1-methyl-3,4-dihydro-1H-pyrimido[1,6-a]pyrimidin-6(2H)-one] | – | ≤ 1 | ≤ 100 |
| CN1CCCn2c1cc(OCc1ccc(Oc3cc(F)cc(C#N)c3)c(F)c1)nc2=O [Example 98, 3-fluoro-5-(2-fluoro-4-(((1-methyl-6-oxo-2,3,4,6-tetrahydro-1H-pyrimido[1,6-a]pyrimidin-8-yl)oxy)methyl)phenoxy)benzonitrile] | – | ≤ 1 | ≤ 100 |
| CN1CCCn2c1cc(OCc1ccc(Oc3cc(F)cc(F)c3)c(F)c1)nc2=O [Example 58, 8-((4-(3,5-difluorophenoxy)-3-fluorobenzyl)oxy)-1-methyl-3,4-dihydro-1H-pyrimido[1,6-a]pyrimidin-6(2H)-one] | < 0.501 | ≤ 1 | ≤ 100 |
| CN1CCCn2c1cc(OCc1cc(F)c(Oc3ccc(Cl)c(F)c3)c(F)c1)nc2=O [Example 82, 8-((4-(4-chloro-3-fluorophenoxy)-3,5-difluorobenzyl)oxy)-1-methyl-3,4-dihydro-1H-pyrimido[1,6-a]pyrimidin-6(2H)-one] | – | ≤ 1 | ≤ 100 |
| CN1CCCn2c1cc(OCc1cc(F)c(Oc3cccc(F)c3)c(F)c1)nc2=O [Example 78, 8-((3,5-difluoro-4-(3-fluorophenoxy)benzyl)oxy)-1-methyl-3,4-dihydro-1H-pyrimido[1,6-a]pyrimidin-6(2H)-one] | – | ≤ 10 | ≤ 1000 |
| CC(C)N1CCCn2c1cc(OCc1ccc(Oc3ccc(C(F)(F)F)nc3)c(F)c1)nc2=O [Example 38, 8-((3-fluoro-4-((6-(trifluoromethyl)pyridin-3-yl)oxy)benzyl)oxy)-1-isopropyl-3,4-dihydro-1H-pyrimido[1,6-a]pyrimidin-6(2H)-one] | – | ≤ 10 | ≤ 100 |
| CN1CCCn2c1cc(OCc1ccc(Oc3cccc(C(F)(F)F)n3)c(F)c1)nc2=O [Example 32, 8-((3-fluoro-4-((6-(trifluoromethyl)pyridin-2-yl)oxy)benzyl)oxy)-1-methyl-3,4-dihydro-1H-pyrimido[1,6-a]pyrimidin-6(2H)-one] | – | ≤ 10 | ≤ 1000 |
